# From article PMC10539800, “Small-molecule inhibitors of the PDZ domain of Dishevelled proteins interrupt Wnt signalling” (Magnetic resonance, 2021)
# Several values for one entry are separate records, joined by “and”; a condition that tells them apart may be missing. Equal entries are not always repeated.
# What was measured:
# Dvl-3 PDZ [1] = biological target: T1, Dvl-3 PDZ (Homo sapiens, UniProt Q92997); experiment: Binding constant by isothermal titration calorimetry (ITC); conditions: for Kd: by ITC, one-site binding model, 25 °C, read-out: K D Dvl-3 PDZ; for n (stoichiometry) Dvl-3 PDZ: ITC one-site fit
# T1 construct: spectra of Dvl-3 PDZ in the absence and presence of the compound; His-tag (cleaved yes); made in house
# T1 sequence (Q92997 243-336): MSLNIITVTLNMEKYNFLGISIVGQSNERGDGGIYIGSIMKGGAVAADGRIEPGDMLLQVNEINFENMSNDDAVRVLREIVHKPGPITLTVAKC
# Method: (§2) Isothermal titration calorimetry (ITC) experiments were performed using a VP-ITC system (MicroCal). Protein in 20 mM HEPES buffer and 50 mM NaCl (pH 7.4) was centrifuged and degassed before the experiment. A 200 µM ligand solution containing 2 % DMSO was injected 30 times in 10 µL aliquots at 120 s intervals with a stirring speed of 1000 rpm into a 1.4 mL sample cell containing the Dvl PDZ domain at a concentration of 20 µM at 25 ^∘ C. Control experiment was initially determined by titrating ligand into buffer at the same conditions. […] Thermodynamic properties and binding constants were determined by fitting the data with a non-linear least-squares routine using a single-site binding model with Origin (OriginLab) for ITC v.7.2 (MicroCal).
# Dvl-1 PDZ = biological target: T2, Dvl-1 PDZ (Homo sapiens, UniProt O14640, C338S/V250I); conditions: ITC
# T2 sequence (O14640 245-338 V250I/C338S): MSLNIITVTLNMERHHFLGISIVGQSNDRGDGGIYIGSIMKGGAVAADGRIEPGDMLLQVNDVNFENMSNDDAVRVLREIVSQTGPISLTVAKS
# Method: as §2
# Dvl-3 PDZ [2] = biological target: T1, Dvl-3 PDZ; experiment: NMR 1H-15N HSQC chemical shift perturbation; type: binding; conditions: for Chemical shift perturbation ΔCSP: Dvl-3 PDZ, average of the three strongest shifting cross peaks
# Method: The results of virtual screening were checked experimentally by comparing 2D ^1H-^15N HSQC (heteronuclear single quantum correlation) spectra of Dvl-3 PDZ in the absence and presence of the compound to elucidate ligand-induced changes of chemical shifts. Chemical shift perturbation differences ( Δ CSP, representing the average of the three strongest shifting cross peaks according to Eq. 1) were evaluated in cases where the residues responding strongest are inside the area defined by Fig. 1a. […] In most cases, the signals of residues S263, V287, and R320 (Fig. 1a) within the conserved binding site were most strongly perturbed (Fig. S2). With the Δ CSP of 0.12 ppm, the isoleucine-derived compound 1 ((2,3-dihydrobenzo[b][1,4]dioxin-6-yl)sulfonyl)-L-isoleucine containing a sulfonamide moiety was detected initially as one of the best “hits” according to chemical shift changes. The sulfonamide is a well-known moiety in drug discovery (Mathvink et al., 1999; Wu et al., 1999; Sleight et al., 1998; O'Brien et al., 2000; Tellew et al., 2003).
# Two-dimensional ^1H-^15N HSQC spectra were used to screen a library of 212 compounds designed by the company Enamine for PDZ domains. 50 µM of ^15N -labelled protein samples was prepared in a 20 mM sodium phosphate buffer, containing 50 mM sodium chloride, 0.02 % ( w/v ) NaN3 , at pH 7.4. Stock solutions of small molecules were prepared in DMSO-d6 at a concentration of 160 mM. A ^1H-^15N HSQC spectrum of Dvl PDZ was acquired at 300 K with 5 % DMSO-d6 in the absence of ligand as reference spectrum. Mixtures of 16 compounds were added to ^15N -labelled Dvl PDZ at eightfold molar excess each. The final concentration of DMSO-d6 in the protein–ligand solutions was 5 %. Spectra were acquired with eight scans and 256 points in the indirect dimension. […] The active compound was obtained through successive deconvolution. Experiments were recorded on a Bruker DRX600 spectrometer equipped with a triple-resonance cryoprobe. The preparation of samples was done automatically by a Tecan Genesis RSP 150 pipetting robot. Spectra were analysed using the programs TOPSPIN and SPARKY (Goddard and Kneller, 2003).
# 50 µM of ^15N -labelled protein samples was prepared in a 20 mM sodium phosphate buffer containing 50 mM sodium chloride, 0.02 % ( w/v ) NaN3 , at pH 7.4. Stock solutions of small molecules were prepared in DMSO-d6 at a concentration of 160 mM. A ^1H-^15N HSQC spectrum of Dvl PDZ was acquired at 300 K with 5 % DMSO-d6 in the absence of ligand as reference spectrum. Mixtures of 16 compounds were added to ^15N -labelled Dvl PDZ at eightfold molar excess each. The final concentration of DMSO-d6 in the protein–ligand solutions was 5 %. Spectra were acquired with eight scans and 256 points in the indirect dimension.
# The active compound was obtained through successive deconvolution. Experiments were recorded on a Bruker DRX600 spectrometer equipped with a triple-resonance cryoprobe. The preparation of samples was done automatically by a Tecan Genesis RSP 150 pipetting robot. Spectra were analysed using the programs TOPSPIN and SPARKY.
# Dvl-3 PDZ [3] = experiment: Binding constant by NMR titration; set-up: species or system human; conditions: from NMR K D values
# Text: (§1) K D is the equilibrium dissociation constant.
# Dvl-3 PDZ [4] = biological target: T1, Dvl-3 PDZ; experiment: Binding constant by NMR titration; conditions: by NMR; mean ± SD of at least six residues; read-out: K D Dvl-3 PDZ
# Text: as §1
# MTT cell viability assay = type: cell-based; conditions: human; HEK293 cells, 24 h after treatment; read-out: EC 50 cell viability
# Method: These compounds were selected due to different substituents at the R 1 , including halogens. […] In this way, we aimed to develop both potent and less-toxic cell-permeable inhibitors. […] Their binding constants almost have the same value despite the different substituents (bromine or chlorine) at the pyrrole rings. […] Instead, a π – π stacking interaction with F259 was observed (Fig. S3i).
# HEK293 cells were plated on a 96-well plate and treated with different concentrations of Dvl inhibitors. After 24 h treatment, 20 µL of MTT solution (5 mg mL ^-1 ) was added into each well. After 2 h incubation, cell culture medium was replaced with 50 µL DMSO, and the signal of the purple formazan, produced by living cells, was measured by a plate reader.
structure (smiles),measurement,setting,value
CS(=O)(=O)Nc1ccc(F)cc1C(=O)O [Compound 6],binding to Dvl-3 PDZ (in words),Dvl-3 PDZ [1]; ITC,millimolar (mM) range
same,Kd,Dvl-3 PDZ [1],> 1000 µM
Cc1ccc(NS(=O)(=O)c2ccc(CNC(=O)c3c[nH]c4ccccc34)c(Cl)c2)c(C(=O)O)c1 [Compound 19],T Δ S Dvl-3 PDZ,Dvl-3 PDZ [1]; ITC,0.4 kcal mol ^-1
same,Δ H Dvl-3 PDZ,Dvl-3 PDZ [1]; ITC,-5.9 kcal mol ^-1
same,Kd,Dvl-3 PDZ [1],21.8 µM and 21 µM
same,T Δ S Dvl-1 PDZ,Dvl-1 PDZ,-0.3 kcal mol ^-1
same,Δ G Dvl-1 PDZ,Dvl-1 PDZ,-7.0 kcal mol ^-1
same,Δ H Dvl-1 PDZ,Dvl-1 PDZ,-7.3 kcal mol ^-1
CN1C(=O)Cc2cc(S(=O)(=O)Nc3ccc(F)cc3C(=O)O)ccc21 [Compound 2],Chemical shift perturbation ΔCSP,Dvl-3 PDZ [2],> 0.2 ppm
Cc1ccc(S(=O)(=O)Nc2ccc(F)cc2C(=O)O)cc1C [Compound 4],discrimination between Dvl-3 PDZ and Dvl-1 PDZ (in words),Dvl-3 PDZ [3],did not distinguish
same,Kd,Dvl-3 PDZ [4],83.9 ± 7.8 µM
O=C(O)c1cc(Cl)ccc1NS(=O)(=O)c1ccc2c(c1)CCCC2 [Compound 9],Kd,Dvl-3 PDZ [4],41.1 ± 3.1 µM
same,EC50 at 24 h,MTT cell viability assay,61 to 131 µM
Cc1ccc(NS(=O)(=O)c2ccc3c(c2)CCCC3)c(C(=O)O)c1 [Compound 10],Kd,Dvl-3 PDZ [4],62.5 ± 4.7 µM
same,EC50 at 24 h,MTT cell viability assay,61 to 131 µM
"CC[C@H](C)[C@H](NS(=O)(=O)c1ccc2c(c1)OCCO2)C(=O)O [Compound 1, ((2,3-dihydrobenzo[b][1,4]dioxin-6-yl)sulfonyl)-L-isoleucine]",Chemical shift perturbation ΔCSP,Dvl-3 PDZ [2],0.12 ppm
"CC(=O)c1ccc(S(=O)(=O)Nc2ccc(C(F)(F)F)cc2C(=O)O)cc1 [Compound 15, 2-(4-Acetylphenylsulfoamido)-5-(trifluoromethyl)benzoic acid]",Kd,Dvl-3 PDZ [1],52.9 ± 1.7 µM
"O=C(O)c1cc(C(F)(F)F)ccc1NS(=O)(=O)c1ccc2c(c1)OCCO2 [Compound 16, 2-(2,3-Dihydrobenzo[b][1,4]dioxine-6-sulfonamido)-5-(trifluoromethyl)benzoic acid]",Kd,Dvl-3 PDZ [1],59.1 ± 1.5 µM
"O=C(O)c1cccc(S(=O)(=O)Nc2cccc(S(=O)(=O)Nc3ccccc3C(=O)O)c2)c1 [NPL-1011, 3-( {3-[(2-carboxyphenyl)sulfamoyl]phenyl}sulfamoyl)benzoic acid, reference compound]",n (stoichiometry) Dvl-3 PDZ,Dvl-3 PDZ [1],0.90 ± 0.08
same,-tΔS Dvl-3 PDZ,"Dvl-3 PDZ [1]; ITC, Fig. S7",-2.8 kcal/mol
same,Δ G Dvl-3 PDZ,"Dvl-3 PDZ [1]; ITC, Fig. S7",-5.5 kcal/mol
same,Δ H Dvl-3 PDZ,"Dvl-3 PDZ [1]; ITC, Fig. S7",-2.7 ± 1.2 kcal/mol
same,Kd,Dvl-3 PDZ [1],79.7 ± 53.3 µM
"Cc1cc(C)c(S(=O)(=O)Nc2ccc(Br)cc2C(=O)O)c(C)c1 [Compound 14, 5-Bromo-2-(2,4,6-trimethylphenylsulfoamido)benzoic acid]",Kd,Dvl-3 PDZ [1],58.1 ± 2.1 µM
"CC1=C(CC(=O)O)c2cc(F)ccc2/C1=C\c1ccc([S+](C)[O-])cc1 (centres unmarked) [Sulindac, reference compound]",n (stoichiometry) Dvl-3 PDZ,Dvl-3 PDZ [1],0.97 ±0.14
same,-tΔS Dvl-3 PDZ,"Dvl-3 PDZ [1]; ITC, Fig. S7",24.9 kcal/mol
same,Δ H Dvl-3 PDZ,"Dvl-3 PDZ [1]; ITC, Fig. S7",-31.9 kcal/mol
"O=C(O)c1cc(Br)ccc1NS(=O)(=O)Cc1ccccc1 [Compound 12, 5-Bromo-2-(phenylmethylsulfonamido)benzoic acid]",Kd,Dvl-3 PDZ [1],58.5 µM
"O=C(O)c1cc(C(F)(F)F)ccc1NS(=O)(=O)c1ccc2c(c1)CCCC2 [Compound 8, 2-(5,6,7,8-Tetrahydronaphthalene-2-sulfonamido)-5-(trifluoromethyl) benzoic acid]",Kd,Dvl-3 PDZ [1],17.4 ± 0.5 µM
same,EC50 at 24 h,MTT cell viability assay,61 to 131 µM
"CC(C)[C@H](OC(=O)[C@H](C)NC(=O)[C@@H](OC(=O)[C@H](C)NC(=O)OC(C)(C)C)C(C)C)C(=O)O [NSC668036, reference compound]",binding to Dvl-3 PDZ (in words),Dvl-3 PDZ [1]; ITC,did not show high-affinity binding
same,Kd,Dvl-3 PDZ [1],> 400 µM
O=C(O)c1cc(Br)ccc1NS(=O)(=O)c1ccc2c(c1)CCCC2 [Compound 7],Kd,Dvl-3 PDZ [4],20.6 ± 2.4 µM
same,EC50 at 24 h,MTT cell viability assay,61 to 131 µM
"O=C(O)c1cc(Br)ccc1NS(=O)(=O)c1ccc(COc2ccccc2)cc1 [Compound 13, 5-Bromo-2-(4-(phenoxymethyl)phenylsulfonamido)benzoic acid]",Kd,Dvl-3 PDZ [1],7.2 µM
O=C(O)c1cc(F)ccc1NS(=O)(=O)c1ccc2c(c1)CCC2 [Compound 3],discrimination between Dvl-3 PDZ and Dvl-1 PDZ (in words),Dvl-3 PDZ [3],did not distinguish
same,Kd,Dvl-3 PDZ [4],80.6 ± 6.1 µM
same,EC50 at 24 h,MTT cell viability assay,61 to 131 µM
"O=C(Cc1ccccc1)Nc1cccc(C(=O)Nc2ccccc2C(=O)O)c1 [CBC-322338/3289-8625, reference compound]",binding to Dvl-3 PDZ (in words),Dvl-3 PDZ [1]; ITC,did not show
same,Kd,Dvl-3 PDZ [1],> 400 µM
same,Chemical shift perturbation ΔCSP,Dvl-3 PDZ [2],around 0.1 ppm
same,Kd,"Dvl-3 PDZ [2]; estimated from NMR CSP comparison and weak heat in ITC, read-out: binding affinity to Dvl-3",< 50 µM
"Cc1cc(C)c(S(=O)(=O)Nc2ccc(C(F)(F)F)cc2C(=O)O)c(C)c1 [Compound 17, 5-(Trifluoromethyl)-2-(2,4,6-trimethylphenylsulfoamido)benzoic acid]",Kd,Dvl-3 PDZ [1],49.5 µM
"O=C(O)c1cc(Br)ccc1NS(=O)(=O)c1ccc2ccccc2c1 [Compound 11, 5-Bromo-2-(naphthalene-2-sulfonamido) benzoic acid]",Kd,Dvl-3 PDZ [1],13.8 µM
